We go through 19 molecules from paper PMC10112521, “High-throughput AR dimerization assay identifies androgen disrupting chemicals and metabolites” (Frontiers in Toxicology, 2023).

The test system of one experiment is AR2 cells (HepG2-AR2). The experiment in a line: Alamar Blue (resazurin) post hoc cell viability / cytotoxicity assay in AR2 cells. As to conditions: spid Viability, sheet antagonist_fits; for hill_tp (Hill model top): 0 where win_model is Constant. (In general: Alamar Blue is a resazurin reagent that responds to reducing activity.)
Experiment [1] deals with T1, human AR (Homo sapiens, UniProt P10275).
T1 sequence (P10275 1-920) 1: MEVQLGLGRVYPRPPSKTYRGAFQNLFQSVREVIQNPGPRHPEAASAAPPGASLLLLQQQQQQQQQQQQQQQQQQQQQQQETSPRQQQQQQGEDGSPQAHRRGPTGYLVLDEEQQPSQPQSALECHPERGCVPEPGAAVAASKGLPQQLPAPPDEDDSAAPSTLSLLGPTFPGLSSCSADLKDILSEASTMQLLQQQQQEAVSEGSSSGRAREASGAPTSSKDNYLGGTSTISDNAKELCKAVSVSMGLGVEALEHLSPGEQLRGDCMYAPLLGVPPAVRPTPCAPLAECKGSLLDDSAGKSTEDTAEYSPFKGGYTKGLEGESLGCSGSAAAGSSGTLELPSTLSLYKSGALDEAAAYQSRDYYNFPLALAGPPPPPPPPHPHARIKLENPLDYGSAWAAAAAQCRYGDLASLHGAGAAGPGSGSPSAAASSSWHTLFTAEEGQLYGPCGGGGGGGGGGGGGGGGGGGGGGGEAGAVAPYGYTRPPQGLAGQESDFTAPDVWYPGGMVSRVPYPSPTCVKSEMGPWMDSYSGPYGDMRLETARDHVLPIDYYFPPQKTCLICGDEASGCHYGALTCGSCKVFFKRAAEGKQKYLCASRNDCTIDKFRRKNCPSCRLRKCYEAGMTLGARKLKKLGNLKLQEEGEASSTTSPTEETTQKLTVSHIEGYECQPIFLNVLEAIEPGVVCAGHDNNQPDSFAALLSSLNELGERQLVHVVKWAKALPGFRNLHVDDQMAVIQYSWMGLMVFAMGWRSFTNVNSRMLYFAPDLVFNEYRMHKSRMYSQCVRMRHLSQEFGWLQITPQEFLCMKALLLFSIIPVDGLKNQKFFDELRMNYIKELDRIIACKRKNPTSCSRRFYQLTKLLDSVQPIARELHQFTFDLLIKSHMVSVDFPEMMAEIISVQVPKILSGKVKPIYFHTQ
T1 sequence (P10275 1-920) 2: T1 sequence (P10275 1-920) 1
Kind of experiment: AR2 assay, agonist mode: ligand-dependent AR homodimerization (NanoBiT luciferase complementation) in stable HepG2-AR2 cells.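 As to hill tp: Log2 fold change of luminescence over DMSO vehicle wells.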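 As to max med: Log2 fold change of luminescence over DMSO vehicle wells.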 The class given is cell-based. As to conditions: for max_med: maximum median response; for hill_tp: Hill model top (efficacy); for win_model: winning concentration-response model (Constant, Hill, Gain-Loss).

Experiment [2] concerns the target T1, human AR. The experiment in a line: AR2 assay, antagonist mode: disruption of R1881 (10 nM)-induced AR homodimerization in HepG2-AR2 cells. The class given is cell-based. The settings on record: for max_med (maximum median response) / win_model (winning concentration-response model) / hill_gw (Hill model slope) / hill_tp (Hill model top): spid AR_antagonist, sheet antagonist_fits; for hill_gw (Hill model slope) / hill_tp (Hill model top): 0 where win_model is Constant.

Another experiment deals with AR. Also noted: method as in Kleinstreuer et al., 2017. As to conditions: 2017, cited from earlier work; for Agonist reference: AR agonist reference class ref Kleinstreuer et al.; for Antagonist reference: AR antagonist reference class ref Kleinstreuer et al.
Experiment [3] concerns full-length human AR and the receptor interacting domain (RID) of SRC1. Also on record: method as in U.S. EPA, 2002b. The settings on record: activity call, single protocol detects agonists and antagonists, invitroDBv3.4 ref U.S. EPA, 2002b, cited from earlier work.
[4] abbreviates: sheet agonist_fits, 0 given where win_model is Constant.

Where a name gives a salt, the structure may show the parent alone. Read-outs that look alike come from different tables or passages of the source.

Description for AR2 cells (HepG2-AR2): For antagonist mode and cytotoxicity data, well-level normalized response (resp) was calculated as: resp=100 * RLU−bval/pval−bval where pval is the median RLU value of the MEC positive control wells (minimum four wells).

As to `CCN(CC)CCOc1ccc(C(=C(Cl)c2ccccc2)c2ccccc2)cc1` [Clomiphene citrate], in the experiment on AR2 cells (HepG2-AR2), the “max_med (maximum median response)” value is recorded as 99.676 and the “hill_tp (Hill model top)” value came out at 104.376. In addition, the max_med at human AR [1] (sheet agonist_fits) is reported as -0.008157. Further, on human AR [2], the “max_med (maximum median response)” value worked out at 103.883, the “win_model (winning concentration-response model)” value was “Hill”, the “hill_gw (Hill model slope)” value came out at 2.036 and the “hill_tp (Hill model top)” value was 106.625.
As to `CC/C(=C(\c1ccccc1)c1ccc(OCCN(C)C)cc1)c1ccccc1` [Tamoxifen], in the experiment on AR, the Agonist reference entry is “Inactive”. Moreover, in the experiment on AR2 cells (HepG2-AR2), the “max_med (maximum median response)” value was 41.7162 and the “hill_tp (Hill model top)” value came out at 97.2082.
With `CNC(=O)ON=C(C)SC` [Methomyl], the Antagonist reference entry in the experiment on AR is recorded as “Inactive”. For the same molecule, in the experiment on AR2 cells (HepG2-AR2), the “max_med (maximum median response)” value turned out to be 19.3855 and the “hill_tp (Hill model top)” value was determined as 17.5917.
Take `C#C[C@]1(O)CC[C@H]2[C@@H]3CCC4=CC(=O)CC[C@@H]4[C@H]3CC[C@@]21C` [Norethindrone]: the Agonist reference entry in the experiment on AR is “Strong”. Further, the Agonist reference entry in the experiment with AR (Supplementary Table S1) is listed as “Strong”. In addition, in the experiment on AR2 cells (HepG2-AR2), the “max_med (maximum median response)” value was found to be 2.971 and the “hill_tp (Hill model top)” value is recorded as 0.
For the molecule `CC(C)C(=O)Nc1ccc([N+](=O)[O-])c(C(F)(F)F)c1` [Flutamide], in the experiment with AR, the Agonist reference result was “Inactive” and the Antagonist reference entry is reported as “Moderate”. In addition, in the experiment on AR (Supplementary Table S1), the Antagonist reference entry was “Moderate”. In addition, in the experiment with AR2 cells (HepG2-AR2), the “max_med (maximum median response)” value worked out at 35.756 and the “hill_tp (Hill model top)” value is recorded as 43.7281.
Regarding `CCN(CC)CCOc1ccc(/C(=C(/Cl)c2ccccc2)c2ccccc2)cc1` [Enclomiphene hydrochloride], in the experiment with AR2 cells (HepG2-AR2), the “max_med (maximum median response)” value was determined as 99.6641 and the “hill_tp (Hill model top)” value was 101.238. The hill_tp on human AR [1] (setting [4]) was determined as 0. On human AR [1] (sheet agonist_fits), the max_med worked out at 0.05981 and the win_model entry is “Constant”. Further, on human AR [2], the “max_med (maximum median response)” value was found to be 104.097, the “win_model (winning concentration-response model)” value is listed as “Hill”, the “hill_gw (Hill model slope)” value was 2.002 and the “hill_tp (Hill model top)” value came to 106.442.
Consider `COc1ccc(C(c2ccc(OC)cc2)C(Cl)(Cl)Cl)cc1` [Methoxychlor], for which, in the experiment with AR, the Antagonist reference result is “Weak”. The Antagonist reference result in the experiment on AR (Supplementary Table S1) is recorded as “Weak”. Further, in the experiment on AR2 cells (HepG2-AR2), the “max_med (maximum median response)” value is reported as 4.672 and the “hill_tp (Hill model top)” value came out at 0.
Consider `COP(=S)(OC)Oc1ccc([N+](=O)[O-])c(C)c1` [Fenitrothion], for which the Antagonist reference result in the experiment with AR and with AR (Supplementary Table S1) was “Strong” in each case. Moreover, the “max_med (maximum median response)” value in the experiment with AR2 cells (HepG2-AR2) is recorded as 18.684. The “hill_tp (Hill model top)” value in the experiment with AR2 cells (HepG2-AR2) came to 19.2014.
Take `CC1(C)NC(=O)N(c2ccc([N+](=O)[O-])c(C(F)(F)F)c2)C1=O` [Nilutamide]: in the experiment with AR (Supplementary Table S1), the Agonist reference entry is listed as “Inactive” and the Antagonist reference entry is listed as “Moderate”. Moreover, in the experiment on AR2 cells (HepG2-AR2), the “max_med (maximum median response)” value is listed as 8.678 and the “hill_tp (Hill model top)” value is 5.9263.
With `CC(C)(C)NC(=O)[C@H]1CC[C@H]2[C@@H]3CC[C@H]4NC(=O)C=C[C@]4(C)[C@H]3CC[C@]12C` [Finasteride], the Agonist reference entry in the experiment on AR is “Inactive”. In the experiment on AR2 cells (HepG2-AR2), the “max_med (maximum median response)” value is recorded as 14.3947 and the “hill_tp (Hill model top)” value was found to be 0.
For `CCOC(=O)CC(SP(=S)(OC)OC)C(=O)OCC` (stereo not drawn) [Malathion], in the experiment with AR2 cells (HepG2-AR2), the “max_med (maximum median response)” value was 9.605 and the “hill_tp (Hill model top)” value was 0. This molecule also registered a hill_tp at human AR [1] (setting [4]) of 0. At human AR [1] (sheet agonist_fits), the max_med came to 0.05987 and the win_model entry is recorded as “Constant”. Further, on human AR [2], the “max_med (maximum median response)” value is reported as 33.4262, the “win_model (winning concentration-response model)” value is on record as “Hill”, the “hill_gw (Hill model slope)” value was determined as 0.997 and the “hill_tp (Hill model top)” value worked out at 41.649.
For `CON(C)C(=O)Nc1ccc(Cl)c(Cl)c1` [Linuron], the Antagonist reference result in the experiment on AR is recorded as “Moderate”. Further, the Antagonist reference entry in the experiment with AR (Supplementary Table S1) is “Moderate”. In the experiment with AR2 cells (HepG2-AR2), the “max_med (maximum median response)” value is listed as 8.62 and the “hill_tp (Hill model top)” value is recorded as 20.739.
Regarding `C#C[C@]1(O)CC[C@H]2[C@@H]3CCC4=CC(=O)CC[C@@H]4[C@H]3CC[C@@]21CC` [Levonorgestrel], the Agonist reference entry with AR is given as “Strong”. For the same molecule, the Agonist reference entry with AR (Supplementary Table S1) was “Strong”. For the same molecule, in the experiment on AR2 cells (HepG2-AR2), the “max_med (maximum median response)” value is recorded as 19.7477 and the “hill_tp (Hill model top)” value came out at 15.1748.
Take `CCCCOC(=O)c1ccccc1C(=O)OCc1ccccc1` [Butylbenzylphthalate]: in the experiment with AR (Supplementary Table S1), the Agonist reference result is given as “Inactive”. In addition, in the experiment with AR2 cells (HepG2-AR2), the “max_med (maximum median response)” value was found to be 15.4413 and the “hill_tp (Hill model top)” value came to 12.3573.
As for `CC(=O)S[C@@H]1CC2=CC(=O)CC[C@]2(C)[C@H]2CC[C@@]3(C)[C@@H](CC[C@@]34CCC(=O)O4)[C@H]12` [Spironolactone], the Antagonist reference result with AR and in the experiment on AR (Supplementary Table S1) was “Strong” each time. For the same molecule, in the experiment with AR2 cells (HepG2-AR2), the “max_med (maximum median response)” value is on record as 26.4305.
For `C[C@]12CCC(=O)C=C1CC[C@@H]1[C@@H]2CC[C@]2(C)C(=O)CC[C@@H]12` [4-Androstene-3,17-dione], in the experiment on AR, the Agonist reference entry is on record as “Moderate” and the Antagonist reference entry is “Inactive”. In the experiment on AR (Supplementary Table S1), the Agonist reference result was “Moderate”. For the same molecule, in the experiment on AR2 cells (HepG2-AR2), the “max_med (maximum median response)” value was 19.1138 and the “hill_tp (Hill model top)” value came to 19.333. Further, in experiment [3], the “OT 8 hr” value was 1 and the “OT 16 hr” value is on record as 1.
With `CNC(=O)O/N=C(\SC)C(=O)N(C)C` [Oxamyl], in the experiment with AR2 cells (HepG2-AR2), the “max_med (maximum median response)” value turned out to be 14.6316 and the “hill_tp (Hill model top)” value is listed as 13.892. Moreover, the hill_tp on human AR [1] (setting [4]) came to 0. At human AR [1] (sheet agonist_fits), the max_med amounted to 0.09886 and the win_model entry is “Constant”. Besides, on human AR [2], the “max_med (maximum median response)” value came out at 4.35, the “win_model (winning concentration-response model)” value is listed as “Constant”, the “hill_gw (Hill model slope)” value was determined as 0 and the “hill_tp (Hill model top)” value stood at 0.
As for `CC(C)(O)C(=O)Nc1ccc([N+](=O)[O-])c(C(F)(F)F)c1` [Hydroxyflutamide], the Antagonist reference result in the experiment with AR was “Strong”. Also, the Antagonist reference entry in the experiment on AR (Supplementary Table S1) is “Strong”. Moreover, in the experiment on AR2 cells (HepG2-AR2), the “max_med (maximum median response)” value stood at 16.5535 and the “hill_tp (Hill model top)” value is given as 15.0961. Also, the “activity call in agonist mode” value on human AR [1] (128-chemical evaluation, 18 h, active = maximal median response >5*bmad) is “tested active”. The same molecule returned a hill_gw at human AR [1] (sheet agonist_fits, Hill model gain slope (Hill coefficient), 0 given where win_model is Constant) of 0.8082. This molecule had a hill_tp at human AR [1] (setting [4]) of 5.723. At human AR [1] (sheet agonist_fits), the max_med is on record as 5.832 and the win_model result is “Hill”. For the same molecule, in experiment [3], the “OT 8 hr” value is recorded as 1 and the “OT 16 hr” value is reported as 1. Also, on human AR [2] (128-chemical evaluation, 18 h, active = maximal median response >3*bmad and AC50 at least 0.5 log units below cytotoxicity AC50), the “activity call in antagonist mode” value was “tested inactive”. At human AR [2] (activity call, antagonist mode, 18 h), this molecule had an AR2 antagonist of 0. Moreover, at human AR [2] (read-out: antagonist response / maximum efficacy (% inhibition)), the Emax is above 90%. Also, at human AR [2], the “max_med (maximum median response)” value came to 26.302, the “win_model (winning concentration-response model)” value is recorded as “Hill”, the “hill_gw (Hill model slope)” value was found to be 8 and the “hill_tp (Hill model top)” value is given as 19.7734.
Regarding `CCCN(CCOc1c(Cl)cc(Cl)cc1Cl)C(=O)n1ccnc1` [Prochloraz], in the experiment with AR, the Agonist reference entry was “Inactive” and the Antagonist reference result is “Moderate”. Further, the Antagonist reference entry in the experiment on AR (Supplementary Table S1) was “Moderate”. In the experiment with AR2 cells (HepG2-AR2), the “max_med (maximum median response)” value was determined as 76.2192 and the “hill_tp (Hill model top)” value is recorded as 81.7308.
